According to US11370794B2, “Toll-like receptor antagonist compounds and methods of use” (Dynavax Technologies Corporation, priority 2016, dated 2022):
Like-named read-outs stand apart in the source and are kept apart here.

Legend:
human TLR9 = biological target: T1, human TLR9 (Homo sapiens, UniProt Q9NR96); assay: Inhibition of human TLR9 in human B cells (IL-6 ELISA); type: cell-based; settings: for IC50: human B cells, agonist 1018 ISS 1 μM
T1 construct: endogenous in cells; host or cells: primary human B cells (CD19 microbeads) from buffy coats of healthy donors
T1 sequence (Q9NR96 26-1032): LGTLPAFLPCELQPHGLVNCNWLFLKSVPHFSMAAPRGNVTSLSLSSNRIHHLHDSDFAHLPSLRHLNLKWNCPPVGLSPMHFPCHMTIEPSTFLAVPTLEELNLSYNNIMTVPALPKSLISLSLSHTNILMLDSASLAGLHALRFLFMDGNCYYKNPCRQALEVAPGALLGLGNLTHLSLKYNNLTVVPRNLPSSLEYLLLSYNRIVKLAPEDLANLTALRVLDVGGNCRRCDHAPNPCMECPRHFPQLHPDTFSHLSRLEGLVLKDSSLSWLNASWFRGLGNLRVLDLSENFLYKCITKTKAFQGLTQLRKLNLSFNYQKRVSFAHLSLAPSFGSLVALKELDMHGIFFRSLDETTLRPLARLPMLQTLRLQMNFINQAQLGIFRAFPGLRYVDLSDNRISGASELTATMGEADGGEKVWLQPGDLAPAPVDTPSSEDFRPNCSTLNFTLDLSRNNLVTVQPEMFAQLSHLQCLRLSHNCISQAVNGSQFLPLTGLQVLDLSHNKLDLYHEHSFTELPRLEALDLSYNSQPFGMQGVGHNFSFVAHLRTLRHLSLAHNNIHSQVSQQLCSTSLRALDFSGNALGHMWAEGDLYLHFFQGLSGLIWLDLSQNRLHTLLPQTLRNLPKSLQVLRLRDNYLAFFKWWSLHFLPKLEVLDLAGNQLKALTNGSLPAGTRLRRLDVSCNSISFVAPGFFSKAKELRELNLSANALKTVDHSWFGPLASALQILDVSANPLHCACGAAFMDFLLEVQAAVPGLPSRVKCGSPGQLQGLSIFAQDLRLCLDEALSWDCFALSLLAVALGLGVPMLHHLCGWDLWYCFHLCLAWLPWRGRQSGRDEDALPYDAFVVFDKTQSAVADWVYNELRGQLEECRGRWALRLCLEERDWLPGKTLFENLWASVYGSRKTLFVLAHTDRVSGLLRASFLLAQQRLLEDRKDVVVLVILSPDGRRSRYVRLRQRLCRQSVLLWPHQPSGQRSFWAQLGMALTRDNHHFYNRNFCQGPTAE
Summary of the method: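 Primary human B cells (CD19-isolated from donor buffy coats), ~300,000 per well, treated with compound (about 0.01–10 μM, some 0.001–30 μM) then 1 μM CpG oligonucleotide 1018 ISS. After 48 hours at 37° C, supernatant IL-6 measured by ELISA; IC50 from concentration-response of TLR9-dependent activity.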

human TLR8 = biological target: T2, human TLR8 (Homo sapiens, UniProt Q9NR97); assay: Inhibition of human TLR8 in human monocytes (TNF-alpha / IL-1 beta ELISA); type: cell-based; settings: human monocytes, agonist ORN8L 100 μg/mL, 24 hours
T2 construct: endogenous in cells; host or cells: primary human monocytes (CD14 microbeads) from buffy coats of healthy donors
T2 sequence (Q9NR97 27-1041): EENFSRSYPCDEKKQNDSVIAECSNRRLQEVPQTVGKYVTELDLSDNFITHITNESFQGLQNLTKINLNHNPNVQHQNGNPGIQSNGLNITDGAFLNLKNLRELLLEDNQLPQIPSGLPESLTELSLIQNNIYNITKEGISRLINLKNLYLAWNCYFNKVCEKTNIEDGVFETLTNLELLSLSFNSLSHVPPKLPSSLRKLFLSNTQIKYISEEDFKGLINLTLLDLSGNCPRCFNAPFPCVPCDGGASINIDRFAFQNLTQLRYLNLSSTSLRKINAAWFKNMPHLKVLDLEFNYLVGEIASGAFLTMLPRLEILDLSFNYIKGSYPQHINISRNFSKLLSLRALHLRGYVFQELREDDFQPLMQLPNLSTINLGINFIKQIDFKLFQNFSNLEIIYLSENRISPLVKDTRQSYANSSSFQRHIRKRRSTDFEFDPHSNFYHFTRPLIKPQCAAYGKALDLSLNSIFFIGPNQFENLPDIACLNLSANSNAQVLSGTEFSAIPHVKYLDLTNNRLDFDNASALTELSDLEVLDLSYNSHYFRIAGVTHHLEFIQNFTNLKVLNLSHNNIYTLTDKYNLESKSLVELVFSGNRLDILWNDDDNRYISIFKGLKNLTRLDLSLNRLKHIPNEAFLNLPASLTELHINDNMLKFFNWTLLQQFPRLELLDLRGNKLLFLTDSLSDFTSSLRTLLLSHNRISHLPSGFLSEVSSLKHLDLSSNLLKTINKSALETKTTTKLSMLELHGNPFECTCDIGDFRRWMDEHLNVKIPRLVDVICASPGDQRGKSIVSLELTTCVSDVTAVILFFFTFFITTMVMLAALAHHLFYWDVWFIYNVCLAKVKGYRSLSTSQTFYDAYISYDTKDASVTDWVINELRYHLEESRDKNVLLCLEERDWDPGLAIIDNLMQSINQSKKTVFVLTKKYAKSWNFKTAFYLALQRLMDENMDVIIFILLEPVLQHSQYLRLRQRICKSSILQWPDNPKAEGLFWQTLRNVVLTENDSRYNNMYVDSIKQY
Summary of the method: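 Primary human monocytes from donor buffy coats (~200,000 cells/well) given serially diluted compound, then ORN8L RNA oligonucleotide agonist at 100 μg/mL final. After 24 h at 37 °C, supernatant TNF-alpha and/or IL-1 beta measured by ELISA; IC50 from the concentration-response of cytokine release.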

[1] = IL-6 readout, 48 hours, range about 0.01 to 10 μM, read-out: Human TLR9 IC50
[2] = IL-1 beta readout, read-out: Human TLR8 IC50 IL-1b
[3] = TNF-alpha readout, read-out: Human TLR8 IC50 TNF-a

IC50 (human TLR9; [1]) [nM]	IC50 (human TLR8; [2]) [nM]	IC50 (human TLR8; [3]) [nM]	IC50 (human TLR9; IL-6, 48 hours, expanded dilution series about 0.001 to 30 μM, read-out: Human TLR9 IC50, expanded dilution series) [nM]	inhibits TLR9-dependent responses (in words) (human TLR9; summary statement of the description)	Compound
251	–	≥ 20000	–	–	Cc1ccc(-n2nc3c(N4CCC(C(=O)NCCCN(C)C)CC4)nnc(C)c3c2-c2ccccc2)cc1 [compound 34, N-(3-(dimethylamino)propyl)-1-(4-methyl-3-phenyl-2-(p-tolyl)-2H-pyrazolo[3,4-d]pyridazin-7-yl)piperidine-4-carboxamide]
3710	–	≥ 20000	–	–	Cc1ccc(-n2nc3c(N4CCC(C(=O)NCCCN(C)C)CC4)nnc(-c4ccccc4)c3c2C)cc1 [compound 35, N-(3-(dimethylamino)propyl)-1-(3-methyl-4-phenyl-2-(p-tolyl)-2H-pyrazolo[3,4-d]pyridazin-7-yl)piperidine-4-carboxamide]
1150	–	7680	–	–	Cc1ccc(-n2nc3c(N4CCC(C(=O)NCCCN(C)C)CC4)nnc(Cl)c3c2C)cc1 [compound 36, 1-(4-chloro-3-methyl-2-(p-tolyl)-2H-pyrazolo[3,4-d]pyridazin-7-yl)-N-(3-(dimethylamino)propyl)piperidine-4-carboxamide]
40	–	≥ 20000	–	–	Cc1ccc(-n2nc3c(N4CCC(C(=O)NCCCCCCN(C)C)CC4)nnc(C)c3c2C)cc1 [compound 38, 1-(3,4-dimethyl-2-(p-tolyl)-2H-pyrazolo[3,4-d]pyridazin-7-yl)-N-(6-(dimethylamino)hexyl)piperidine-4-carboxamide]
26	–	226	–	–	CCN1CCN(C(=O)C2CCN(c3nncc4cn(-c5ccc(C)cc5)nc34)CC2)CC1 [compound 40, (4-ethylpiperazin-1-yl)(1-(2-(p-tolyl)-2H-pyrazolo[3,4-d]pyridazin-7-yl)piperidin-4-yl)methanone]
793	–	≥ 20000	–	–	Cc1ccc(-n2nc3c(N4CCC(C(=O)NCCCN(C)C)CC4)nnc(I)c3c2C)cc1 [compound 41, N-(3-(dimethylamino)propyl)-1-(4-iodo-3-methyl-2-(p-tolyl)-2H-pyrazolo[3,4-d]pyridazin-7-yl)piperidine-4-carboxamide]
133	–	≥ 20000	–	–	Cc1ccc(-n2nc3c(N4CCC(C(=O)NCCCN(C)C)CC4)nncc3c2C)cc1 [compound 42, N-(3-(dimethylamino)propyl)-1-(3-methyl-2-(p-tolyl)-2H-pyrazolo[3,4-d]pyridazin-7-yl)piperidine-4-carboxamide]
1	–	≥ 20000	13	inhibit	CCN(CC)C1CCN(C(=O)C2CCN(c3nnc(C)c4c(C)n(-c5ccc(C)cc5)nc34)CC2)CC1 [compound 43, (4-(diethylamino)piperidin-1-yl)(1-(3,4-dimethyl-2-(p-tolyl)-2H-pyrazolo[3,4-d]pyridazin-7-yl)piperidin-4-yl)methanone]
202	–	≥ 20000	–	–	Cc1ccc(-n2nc3c(N4CCC(C(=O)N5CCC(N(C)C)C5)CC4)nnc(C)c3c2C)cc1 (stereo not drawn) [compound 44, (1-(3,4-dimethyl-2-(p-tolyl)-2H-pyrazolo[3,4-d]pyridazin-7-yl)piperidin-4-yl)(3-(dimethylamino)pyrrolidin-1-yl)methanone]

Continued, compound first:

Compound	IC50 (human TLR9; [1]) [nM]	IC50 (human TLR8; [2]) [nM]	IC50 (human TLR8; [3]) [nM]	IC50 (human TLR9; IL-6, 48 hours, expanded dilution series about 0.001 to 30 μM, read-out: Human TLR9 IC50, expanded dilution series) [nM]	inhibits TLR9-dependent responses (in words) (human TLR9; summary statement of the description)
Cc1ccc(-n2nc3c(N4CCC(C(=O)NC5CCN(C)C5)CC4)nnc(C)c3c2C)cc1 (stereo not drawn) [compound 17, 1-(3,4-dimethyl-2-(p-tolyl)-2H-pyrazolo[3,4-d]pyridazin-7-yl)-N-(1-methylpyrrolidin-3-yl)piperidine-4-carboxamide]	83	> 10000	> 10000	–	–
Cc1ccc(-n2nc3c(N4CCC(C(=O)NC5CCN(C)CC5)CC4)nnc(C)c3c2C)cc1 [compound 18, 1-(3,4-dimethyl-2-(p-tolyl)-2H-pyrazolo[3,4-d]pyridazin-7-yl)-N-(1-methylpiperidin-4-yl)piperidine-4-carboxamide]	137	> 10000	> 10000	–	–
Cc1nnc(N2CCC(C(=O)NCCCN(C)C)CC2)c2nn(-c3cccnc3)c(C)c12 [compound 23, 1-(3,4-dimethyl-2-(pyridin-3-yl)-2H-pyrazolo[3,4-d]pyridazin-7-yl)-N-(3-(dimethylamino)propyl)piperidine-4-carboxamide]	> 10000	–	≥ 20000	–	–
Cc1nnc(N2CCC(C(=O)NCCCN(C)C)CC2)c2nn(-c3ccsc3)c(C)c12 [compound 24, 1-(3,4-dimethyl-2-(thiophen-3-yl)-2H-pyrazolo[3,4-d]pyridazin-7-yl)-N-(3-(dimethylamino)propyl)piperidine-4-carboxamide]	400	–	≥ 20000	–	–
Cc1nnc(N2CCC(C(=O)NCCCN(C)C)CC2)c2nn(C3CCOCC3)c(C)c12 [compound 25, 1-(3,4-dimethyl-2-(tetrahydro-2H-pyran-4-yl)-2H-pyrazolo[3,4-d]pyridazin-7-yl)-N-(3-(dimethylamino)propyl)piperidine-4-carboxamide]	> 10000	–	≥ 20000	–	–
Cc1nnc(N2CCC(C(=O)NCCCN(C)C)CC2)c2nn(C(C)C)c(C)c12 [compound 27, N-(3-(dimethylamino)propyl)-1-(2-isopropyl-3,4-dimethyl-2H-pyrazolo[3,4-d]pyridazin-7-yl)piperidine-4-carboxamide]	> 10000	–	≥ 20000	–	–
Cc1ccc(-n2nc3c(N4CCC(C(=O)NCCCCN(C)C)CC4)nnc(C)c3c2C)cc1 [compound 31, 1-(3,4-dimethyl-2-(p-tolyl)-2H-pyrazolo[3,4-d]pyridazin-7-yl)-N-(4-(dimethylamino)butyl)piperidine-4-carboxamide]	86	–	2680	–	–
Cc1ccc(-n2nc3c(N4CCC(C(=O)NCCCCCN(C)C)CC4)nnc(C)c3c2C)cc1 [compound 32, 1-(3,4-dimethyl-2-(p-tolyl)-2H-pyrazolo[3,4-d]pyridazin-7-yl)-N-(5-(dimethylamino)pentyl)piperidine-4-carboxamide]	55	> 10000	> 10000	–	–
